Test results from US20240269304A1, “BCL-XL INHIBITOR ANTIBODY-DRUG CONJUGATES AND METHODS OF USE THEREOF” (Novartis AG, priority 2020, published 2024).
Where two headings read alike, the source gives them in different places.

Assays:
[1] = ADC stability study: % aggregates by SEC after incubation at 37° C. for 168 h; format: physicochemical
Protocol: Size Exclusion Chromatography: Size exclusion chromatography (SEC) was performed for quality control of each ADCs by measuring monomer percentage of the conjugate. The analysis was performed on analytical column Superdex 200 Increase 5/150 GL (GE Healthcare, 28990945) in isocratic conditions 100% PBS pH7.4 (Sigma Life Science, P3813, 10PAK), flow 0.45 mI/min for 12 minutes. The % aggregate fraction of the conjugate sample was quantified based on the peak area absorbance at 280 nm. Its calculation was based on the ratio between the high molecular weight eluent at 280 nm divided by the sum of peak area absorbance at the same wavelength of the high molecular weight and monomeric eluents multiplied by 100.
Characterization of the exemplary ADCs is summarized in Table 13 (coupling, LC-MS method, OAR, aggregation status, ADO stability and yield). The average OAR values were determined using the above LC-MS methods and the percentage of aggregates was measured by size exclusion chromatography (SEC) during the quality control of the ADO and after the stability study (incubation at 37° C. for 168 h).

H1650 cells = experiment: CellTiterGlo (CTG) cell viability, 3D, 120 h, H1650 (Example 8); format: cell-based, human; conditions: H1650 3D
[2] = experiment n1, read-out: H1650 3D CTG IC50 n1
[3] = experiment n2, read-out: H1650 3D CTG IC50 n2
[4] = mean of n1 and n2, read-out: H1650 3D CTG IC50 Mean of n1 and n2

Row | SMILES | Stab w1 +37° C. % Agg (by SEC) [1] [%] | IC50 (H1650 cells; [2]) [nM] | IC50 (H1650 cells; [3]) [nM] | IC50 (H1650 cells; [4]) [nM]
1 | CC(=O)CCCC[C@](C)(CC(=O)[C@@](C)(CC(=O)CCCCCC1C(=O)CC(C)C1=O)C(C)C)C(=O)Cc1ccc(CC(C)(C)CC#Cc2ccc(CCCCC3=C(C(C)=O)C=C(C4CCCc5c4ccc(CC4=Cc6ccccc6C4)c5C)C3)cc2)cc1 (stereo partly shown) [Ab C - L9A-P28] | 15 | 0.21 | 0.2 | 0.21
2 | Cc1c(Nc2nc3ccccc3s2)nnc2c1CCCN2c1nc(C(=O)O)c(CCCOc2ccc(C#CCN(CCN(C)C)C(=O)OCc3ccc(NC(=O)[C@H](CCCNC(N)=O)NC(=O)[C@@H](NC(=O)CCOCCN4C(=O)CC(C)C4=O)C(C)C)cc3)cc2F)s1 (stereo partly shown) [Ab C - L9C-P12] | 4 | 0.6 | 0.9 | 0.75
3 | Cc1c(Nc2nc3ccccc3s2)nnc2c1CC(OCCN(C)C(=O)OCc1ccc(NC(=O)[C@H](CCCNC(N)=O)NC(=O)[C@@H](NC(=O)CCOCCN3C(=O)CC(C)C3=O)C(C)C)cc1)CN2c1nc(C(=O)O)c(CCCOc2ccc(C#CCN(C)C)cc2F)s1 (stereo partly shown) [Ab C - L9C-P16] | 2.4 | 3.9 | 4.2 | 4.05
4 | Cc1c(Nc2nc3ccccc3s2)nnc2c1CCCN2c1nc(C(=O)O)c(CCCOc2ccc(C#CCN3CCN(C(=O)OCc4ccc(NC(=O)[C@H](CCCNC(N)=O)NC(=O)[C@@H](NC(=O)CCOCCN5C(=O)CC(C)C5=O)C(C)C)cc4)CC3)cc2F)s1 (stereo partly shown) [Ab C - L9C-P17] | 22 | 2.85 | 2.51 | 2.68
5 | C=C(C)CCCC[C@](C)(CC(=C)[C@@](C)(CC(=C)CCCCCC1C(=C)CC(C)C1=C)C(C)C)C(=C)Cc1ccc(CCC(=C)C(CCCCC)CCC[C@]23C[C@]4(C)C[C@](C)(C2)C[C@@](CC2C=CC(c5ccc(C(C)c6ccc(CC7=Cc8ccccc8C7)c(C)c6)cc5C(=C)C)=C2C)(C4)C3)cc1 (stereo partly shown) [Ab C - L9C-P29] | 16 | 0.13 | 0.09 | 0.11
6 | C=C(C)CCCC[C@](C)(CC(=C)[C@@](C)(CC(=C)CCCCCC1C(=C)CC(C)C1=C)C(C)C)C(=C)Cc1ccc(CCC(=C)C2CCC(CCC[C@]34C[C@]5(C)C[C@](C)(C3)C[C@@](CC3C=CC(c6ccc(C7CCCc8c7ccc(CC7=Cc9ccccc9C7)c8C)cc6C(=C)C)=C3C)(C5)C4)CC2)cc1 (stereo partly shown) [Ab C - L9C-P31] | 6 | 0.07 | 0.1 | 0.09
7 | Cc1c(Nc2nc3ccccc3s2)nnc2c1CCCN2c1nc(C(=O)O)c(CCCOc2ccc(C#CCN(C)C(=O)OCc3ccc(NC(=O)[C@H](CCCNC(N)=O)NC(=O)[C@@H](NC(=O)CCOCCN4C(=O)CC(C)C4=O)C(C)C)cc3S(=O)(=O)O)cc2F)s1 (stereo partly shown) [Ab C - L27C-P3] | 17 | 1.4 | 2.6 | 2
